Source: ChEMBL document CHEMBL2440118, “Triazole-dithiocarbamate based selective lysine specific demethylase 1 (LSD1) inactivators inhibit gastric cancer cell growth, invasion, and migration” (J Med Chem, 2013)
Activity calls are given as the source filed them. No cut-off for these calls is given here.

Legend:
[1] = target: T1, Amine oxidase [flavin-containing] B (Homo sapiens, UniProt P27338)
T1 sequence (P27338 whole entry): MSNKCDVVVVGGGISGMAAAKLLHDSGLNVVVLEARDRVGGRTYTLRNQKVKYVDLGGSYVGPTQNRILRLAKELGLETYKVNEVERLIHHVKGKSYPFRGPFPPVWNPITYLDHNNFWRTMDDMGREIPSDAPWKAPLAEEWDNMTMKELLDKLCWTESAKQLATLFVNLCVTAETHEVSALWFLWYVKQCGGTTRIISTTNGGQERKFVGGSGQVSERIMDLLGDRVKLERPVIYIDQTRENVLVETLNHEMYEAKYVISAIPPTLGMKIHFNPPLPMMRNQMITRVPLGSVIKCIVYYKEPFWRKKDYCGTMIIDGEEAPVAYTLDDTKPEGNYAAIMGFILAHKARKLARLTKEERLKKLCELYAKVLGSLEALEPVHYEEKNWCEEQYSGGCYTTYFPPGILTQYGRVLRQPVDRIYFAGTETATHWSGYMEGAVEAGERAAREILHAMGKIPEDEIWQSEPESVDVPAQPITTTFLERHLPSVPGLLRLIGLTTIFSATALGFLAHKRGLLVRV

[2] = target: T2, Amine oxidase [flavin-containing] A (Homo sapiens, UniProt P21397)
T2 sequence (P21397 whole entry): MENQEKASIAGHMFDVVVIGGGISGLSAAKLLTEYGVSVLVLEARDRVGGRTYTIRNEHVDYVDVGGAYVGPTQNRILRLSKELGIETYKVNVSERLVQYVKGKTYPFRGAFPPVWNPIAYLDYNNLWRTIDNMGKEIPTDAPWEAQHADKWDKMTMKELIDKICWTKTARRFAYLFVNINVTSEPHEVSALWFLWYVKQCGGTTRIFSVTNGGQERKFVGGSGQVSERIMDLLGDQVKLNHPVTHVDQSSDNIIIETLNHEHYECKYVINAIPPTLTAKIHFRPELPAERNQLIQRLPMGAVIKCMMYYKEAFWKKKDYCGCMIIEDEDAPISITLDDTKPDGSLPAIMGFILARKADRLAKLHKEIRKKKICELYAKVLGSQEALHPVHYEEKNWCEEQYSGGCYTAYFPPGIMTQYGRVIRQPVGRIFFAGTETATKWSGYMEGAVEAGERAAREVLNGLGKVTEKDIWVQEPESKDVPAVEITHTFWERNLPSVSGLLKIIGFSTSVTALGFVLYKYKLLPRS

[3] = target: Lysine-specific histone demethylase 1A (Homo sapiens) (UniProt O60341); assay: Inhibition of LSD1-snail interaction in human MGC803 cells at 0.25 uM after 48 hrs by immunoprecipitation assay; type: cell-based; conditions: MGC-803
[4] = target: Lysine-specific histone demethylase 1A (Homo sapiens) (UniProt O60341); conditions: 0.5 to […]
[5] = target: Lysine-specific histone demethylase 1A (Homo sapiens) (UniProt O60341)
[6] = target: Lysine-specific histone demethylase 1A (Homo sapiens) (UniProt O60341); conditions: 0.5 to […]; remark: listed apart in the source
[7] = target: Lysine-specific histone demethylase 1A (Homo sapiens) (UniProt O60341); assay: Inhibition of LSD1 in human MGC803 cells assessed as elevation of E-cadherin protein expression at 0.02 to 1 uM after 48 hrs by Western blotting analysis relative to control; type: cell-based; conditions: MGC-803
[8] = target: Lysine-specific histone demethylase 1A (Homo sapiens) (UniProt O60341); remark: listed apart in the source
[9] = target: Lysine-specific histone demethylase 1A (Homo sapiens) (UniProt O60341); conditions: 0.5 to […]; remark: listed apart in the source
[10] = target: Lysine-specific histone demethylase 1A (Homo sapiens) (UniProt O60341); conditions: 312.5 uM

Structure (SMILES)	IC50 [1]	IC50 [2]	inhibition [3]	inhibition [4]	inhibition [5]	inhibition [6]	inhibition [7]	inhibition [8]	inhibition [9]	inhibition [10]
CC(C)(C)OC(=O)N1CCN(C(=S)SCc2cn(Cc3ccccc3F)nn2)CC1	791 µM	> 1250 µM	–	–	–	–	–	–	–	–
Cc1ccc(Cn2cc(CSC(=S)N3CCN(C(=O)OC(C)(C)C)CC3)nn2)cc1	> 1250 µM	> 1250 µM	Active	Active	Active	Active	Active	Active	Active	Active
